7 molecules from ChEMBL document CHEMBL5465560, “Selectivity Literature for EUbOPEN Chemogenomic Library” (2024) can be followed below.

The subject of test [1] is Phosphatidylinositol 4,5-bisphosphate 3-kinase catalytic subunit alpha isoform (Homo sapiens), P42336 [E545A]. The settings on record: at 10 µM.
Test [2] addresses T1, Muscle, skeletal receptor tyrosine-protein kinase (Homo sapiens) (UniProt O15146).
T1 sequence (whole entry): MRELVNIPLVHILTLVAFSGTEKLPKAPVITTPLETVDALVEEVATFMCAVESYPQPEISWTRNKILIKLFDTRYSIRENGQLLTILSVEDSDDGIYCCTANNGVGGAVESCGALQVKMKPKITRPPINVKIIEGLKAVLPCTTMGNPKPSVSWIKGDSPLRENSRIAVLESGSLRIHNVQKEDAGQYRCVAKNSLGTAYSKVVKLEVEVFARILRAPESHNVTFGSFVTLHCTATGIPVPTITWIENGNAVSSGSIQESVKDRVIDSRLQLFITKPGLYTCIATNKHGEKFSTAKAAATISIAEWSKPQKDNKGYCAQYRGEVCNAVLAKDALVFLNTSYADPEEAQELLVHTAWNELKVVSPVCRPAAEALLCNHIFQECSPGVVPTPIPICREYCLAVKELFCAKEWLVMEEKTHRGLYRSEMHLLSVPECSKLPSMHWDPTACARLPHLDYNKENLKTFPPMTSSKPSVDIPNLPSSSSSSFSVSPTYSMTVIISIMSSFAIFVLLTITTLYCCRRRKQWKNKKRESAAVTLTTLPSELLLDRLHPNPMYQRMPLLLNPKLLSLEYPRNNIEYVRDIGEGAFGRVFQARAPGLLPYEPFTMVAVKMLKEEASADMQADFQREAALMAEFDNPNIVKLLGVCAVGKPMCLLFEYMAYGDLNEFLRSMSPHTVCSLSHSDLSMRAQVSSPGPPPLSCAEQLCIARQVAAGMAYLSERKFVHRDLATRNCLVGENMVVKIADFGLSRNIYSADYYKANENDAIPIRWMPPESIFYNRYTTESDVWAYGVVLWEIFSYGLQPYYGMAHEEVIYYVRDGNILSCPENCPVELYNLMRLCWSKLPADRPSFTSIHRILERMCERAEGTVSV
Description: Selectivity interaction (KinomeScan (DiscoverX)) EUB0000607a MUSK. The following applies: at 10 µM.

Test [3] addresses T2, Dual specificity mitogen-activated protein kinase kinase 7 (Homo sapiens) (UniProt O14733).
T2 sequence (whole entry): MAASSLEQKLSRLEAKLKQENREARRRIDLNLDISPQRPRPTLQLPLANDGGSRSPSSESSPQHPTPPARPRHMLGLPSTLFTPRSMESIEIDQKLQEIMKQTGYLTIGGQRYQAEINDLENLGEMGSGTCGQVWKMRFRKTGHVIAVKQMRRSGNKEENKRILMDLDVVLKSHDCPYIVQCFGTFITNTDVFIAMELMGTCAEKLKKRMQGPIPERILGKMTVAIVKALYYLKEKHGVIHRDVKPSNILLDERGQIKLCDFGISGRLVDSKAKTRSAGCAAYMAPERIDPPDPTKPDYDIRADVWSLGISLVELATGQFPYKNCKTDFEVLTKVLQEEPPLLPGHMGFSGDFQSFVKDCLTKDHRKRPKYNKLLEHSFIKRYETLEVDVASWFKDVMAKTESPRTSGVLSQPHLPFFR
The settings on record: at 10 µM.

Test [4] addresses Serine/threonine-protein kinase 24 (Homo sapiens) (UniProt Q9Y6E0). Description: Selectivity interaction (KinomeScan (DiscoverX)) EUB0000229b STK24. The settings on record: at 10 µM.
The target in test [5] is Calcium/calmodulin-dependent protein kinase type II subunit delta (Homo sapiens) (UniProt Q13557). Description: Selectivity interaction (ActivX KiNativ screen (ex vivo kinase selectivity in human PBMCs)) EUB0001619a CAMK2D. The class given is cell-based. The following applies: PBMC, at 1 µM.
Test [6] deals with TRAF2 and NCK-interacting protein kinase (Homo sapiens) (UniProt Q9UKE5). Description: Selectivity interaction (KinomeScan (DiscoverX)) EUB0001619a TNIK. The settings on record: at 1 µM.
Sequence of TRAF2 and NCK-interacting protein kinase (Homo sapiens) (Q9UKE5 whole entry, looked up, canonical isoform): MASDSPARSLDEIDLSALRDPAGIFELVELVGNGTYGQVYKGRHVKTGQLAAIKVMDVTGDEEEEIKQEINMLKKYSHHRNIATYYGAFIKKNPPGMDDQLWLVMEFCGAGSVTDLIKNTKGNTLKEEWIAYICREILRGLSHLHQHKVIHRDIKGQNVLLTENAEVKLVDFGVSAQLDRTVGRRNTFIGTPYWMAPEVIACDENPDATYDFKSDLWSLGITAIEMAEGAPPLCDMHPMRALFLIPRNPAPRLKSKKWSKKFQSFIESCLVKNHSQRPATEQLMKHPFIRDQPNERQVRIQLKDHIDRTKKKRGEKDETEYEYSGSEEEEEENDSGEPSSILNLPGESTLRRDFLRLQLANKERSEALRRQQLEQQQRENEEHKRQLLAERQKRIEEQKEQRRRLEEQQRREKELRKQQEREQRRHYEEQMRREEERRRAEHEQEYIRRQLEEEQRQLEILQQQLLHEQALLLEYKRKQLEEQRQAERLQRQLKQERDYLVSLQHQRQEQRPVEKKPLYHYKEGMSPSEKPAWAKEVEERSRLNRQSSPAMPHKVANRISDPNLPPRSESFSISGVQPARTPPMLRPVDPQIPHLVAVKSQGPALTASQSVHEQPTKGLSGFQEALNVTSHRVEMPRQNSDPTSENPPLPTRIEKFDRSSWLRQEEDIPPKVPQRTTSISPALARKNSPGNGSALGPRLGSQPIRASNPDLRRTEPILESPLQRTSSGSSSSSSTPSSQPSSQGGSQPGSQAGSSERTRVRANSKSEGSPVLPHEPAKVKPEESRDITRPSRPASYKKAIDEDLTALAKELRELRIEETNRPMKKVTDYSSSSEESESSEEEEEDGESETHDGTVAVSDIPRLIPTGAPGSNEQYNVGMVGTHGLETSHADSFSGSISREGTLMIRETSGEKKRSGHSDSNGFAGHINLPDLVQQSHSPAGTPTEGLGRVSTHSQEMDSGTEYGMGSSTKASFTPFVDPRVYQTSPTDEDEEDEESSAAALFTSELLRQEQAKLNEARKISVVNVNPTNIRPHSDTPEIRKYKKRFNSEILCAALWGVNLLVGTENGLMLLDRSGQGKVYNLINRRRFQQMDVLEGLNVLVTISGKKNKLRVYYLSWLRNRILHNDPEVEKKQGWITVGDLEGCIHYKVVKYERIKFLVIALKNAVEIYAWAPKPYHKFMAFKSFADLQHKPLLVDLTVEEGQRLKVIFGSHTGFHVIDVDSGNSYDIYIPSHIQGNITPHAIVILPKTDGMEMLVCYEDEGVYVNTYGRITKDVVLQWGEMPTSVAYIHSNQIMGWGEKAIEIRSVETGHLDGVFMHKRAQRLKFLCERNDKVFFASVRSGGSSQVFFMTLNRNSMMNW
Test [7] concerns the target Phosphatidylinositol 4,5-bisphosphate 3-kinase catalytic subunit beta isoform (Homo sapiens) (UniProt P42338). Description: Selectivity interaction (ActivX KiNativ screen (kinase selectivity in THP-1 cell lysates)) EUB0000639a PIK3CB. The class given is subcellular. The following applies: lysate.
For test [8], the target named is Homeodomain-interacting protein kinase 3 (Homo sapiens, UniProt Q9H422). Description: Selectivity interaction (KinomeScan (DiscoverX)) EUB0001049a HIPK3. The following applies: at 1 µM.
Test [9] concerns the target Serine/threonine-protein kinase N1 (Homo sapiens, UniProt Q16512). Description: Selectivity interaction (KinomeScan (DiscoverX)) EUB0001049a PKN1. The following applies: at 1 µM.
In the next test the target is Misshapen-like kinase 1 (Homo sapiens, UniProt Q8N4C8). Description: Selectivity interaction (KinomeScan (DiscoverX)) EUB0000618a MINK1. The settings on record: at 10 µM.
Sequence of Misshapen-like kinase 1 (Q8N4C8 whole entry, looked up): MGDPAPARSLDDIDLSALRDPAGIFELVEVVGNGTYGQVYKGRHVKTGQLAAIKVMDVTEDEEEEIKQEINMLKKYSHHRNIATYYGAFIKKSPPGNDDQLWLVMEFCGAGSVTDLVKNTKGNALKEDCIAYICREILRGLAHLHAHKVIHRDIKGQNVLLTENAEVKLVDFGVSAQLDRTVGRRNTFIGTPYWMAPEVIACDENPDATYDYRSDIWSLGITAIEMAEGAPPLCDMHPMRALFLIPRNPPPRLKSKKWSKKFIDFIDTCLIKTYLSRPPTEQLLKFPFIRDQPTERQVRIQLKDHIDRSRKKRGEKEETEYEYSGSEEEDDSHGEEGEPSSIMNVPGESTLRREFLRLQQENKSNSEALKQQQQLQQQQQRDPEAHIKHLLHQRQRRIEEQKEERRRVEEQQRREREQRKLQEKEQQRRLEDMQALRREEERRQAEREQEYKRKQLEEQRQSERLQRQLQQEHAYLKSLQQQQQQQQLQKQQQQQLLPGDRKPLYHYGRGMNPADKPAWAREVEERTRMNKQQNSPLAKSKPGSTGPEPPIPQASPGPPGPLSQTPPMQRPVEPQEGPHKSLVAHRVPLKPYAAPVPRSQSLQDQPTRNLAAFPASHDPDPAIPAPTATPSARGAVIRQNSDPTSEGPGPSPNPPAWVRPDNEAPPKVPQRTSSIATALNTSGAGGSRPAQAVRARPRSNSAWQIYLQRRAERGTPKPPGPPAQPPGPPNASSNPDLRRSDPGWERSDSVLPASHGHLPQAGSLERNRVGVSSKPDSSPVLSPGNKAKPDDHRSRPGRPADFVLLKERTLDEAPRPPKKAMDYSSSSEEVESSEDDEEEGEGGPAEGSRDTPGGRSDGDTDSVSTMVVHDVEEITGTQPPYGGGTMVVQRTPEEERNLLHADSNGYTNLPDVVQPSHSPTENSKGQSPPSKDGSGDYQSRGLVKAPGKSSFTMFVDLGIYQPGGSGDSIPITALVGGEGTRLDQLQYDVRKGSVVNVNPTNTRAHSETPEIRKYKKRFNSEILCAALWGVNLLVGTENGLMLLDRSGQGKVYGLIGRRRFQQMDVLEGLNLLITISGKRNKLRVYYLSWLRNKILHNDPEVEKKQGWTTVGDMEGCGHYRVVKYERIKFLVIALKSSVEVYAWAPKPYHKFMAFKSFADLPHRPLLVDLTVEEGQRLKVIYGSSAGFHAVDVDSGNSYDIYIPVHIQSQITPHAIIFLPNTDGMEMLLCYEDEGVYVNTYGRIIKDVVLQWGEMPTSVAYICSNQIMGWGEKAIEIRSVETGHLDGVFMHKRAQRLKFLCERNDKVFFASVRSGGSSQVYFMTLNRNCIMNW

Sequence of Phosphatidylinositol 4,5-bisphosphate 3-kinase catalytic subunit beta isoform (Homo sapiens) (P42338 whole entry, looked up, canonical isoform): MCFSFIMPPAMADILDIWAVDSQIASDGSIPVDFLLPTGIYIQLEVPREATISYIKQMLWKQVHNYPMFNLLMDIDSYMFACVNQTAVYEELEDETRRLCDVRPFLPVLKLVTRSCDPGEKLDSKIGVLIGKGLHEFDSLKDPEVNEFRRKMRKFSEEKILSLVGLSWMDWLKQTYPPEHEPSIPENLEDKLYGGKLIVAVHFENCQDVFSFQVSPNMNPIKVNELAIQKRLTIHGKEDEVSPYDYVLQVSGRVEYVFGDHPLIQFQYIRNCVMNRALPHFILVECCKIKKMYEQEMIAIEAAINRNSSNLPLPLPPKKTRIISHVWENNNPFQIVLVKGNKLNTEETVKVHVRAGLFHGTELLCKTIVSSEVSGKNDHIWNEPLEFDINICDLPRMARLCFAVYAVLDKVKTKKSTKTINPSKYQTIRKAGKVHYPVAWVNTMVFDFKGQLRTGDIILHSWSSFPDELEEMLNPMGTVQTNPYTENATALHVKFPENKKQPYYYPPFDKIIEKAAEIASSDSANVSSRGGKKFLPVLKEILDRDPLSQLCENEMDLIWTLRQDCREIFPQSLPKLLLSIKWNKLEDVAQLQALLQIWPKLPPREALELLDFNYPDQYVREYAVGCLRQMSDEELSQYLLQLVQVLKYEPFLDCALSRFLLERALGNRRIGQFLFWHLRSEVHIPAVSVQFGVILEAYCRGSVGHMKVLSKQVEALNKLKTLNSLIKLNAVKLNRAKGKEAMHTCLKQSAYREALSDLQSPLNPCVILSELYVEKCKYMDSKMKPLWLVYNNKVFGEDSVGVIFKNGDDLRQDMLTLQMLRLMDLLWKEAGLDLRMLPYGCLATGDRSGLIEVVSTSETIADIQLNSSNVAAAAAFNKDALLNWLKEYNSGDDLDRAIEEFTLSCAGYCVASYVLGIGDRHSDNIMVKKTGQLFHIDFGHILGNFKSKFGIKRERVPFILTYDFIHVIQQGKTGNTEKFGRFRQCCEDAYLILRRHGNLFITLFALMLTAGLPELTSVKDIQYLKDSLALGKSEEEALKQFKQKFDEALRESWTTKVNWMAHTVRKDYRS
Sequence of Phosphatidylinositol 4,5-bisphosphate 3-kinase catalytic subunit alpha isoform (Homo sapiens), P42336 [E545A] (P42336 whole entry E545A, canonical isoform): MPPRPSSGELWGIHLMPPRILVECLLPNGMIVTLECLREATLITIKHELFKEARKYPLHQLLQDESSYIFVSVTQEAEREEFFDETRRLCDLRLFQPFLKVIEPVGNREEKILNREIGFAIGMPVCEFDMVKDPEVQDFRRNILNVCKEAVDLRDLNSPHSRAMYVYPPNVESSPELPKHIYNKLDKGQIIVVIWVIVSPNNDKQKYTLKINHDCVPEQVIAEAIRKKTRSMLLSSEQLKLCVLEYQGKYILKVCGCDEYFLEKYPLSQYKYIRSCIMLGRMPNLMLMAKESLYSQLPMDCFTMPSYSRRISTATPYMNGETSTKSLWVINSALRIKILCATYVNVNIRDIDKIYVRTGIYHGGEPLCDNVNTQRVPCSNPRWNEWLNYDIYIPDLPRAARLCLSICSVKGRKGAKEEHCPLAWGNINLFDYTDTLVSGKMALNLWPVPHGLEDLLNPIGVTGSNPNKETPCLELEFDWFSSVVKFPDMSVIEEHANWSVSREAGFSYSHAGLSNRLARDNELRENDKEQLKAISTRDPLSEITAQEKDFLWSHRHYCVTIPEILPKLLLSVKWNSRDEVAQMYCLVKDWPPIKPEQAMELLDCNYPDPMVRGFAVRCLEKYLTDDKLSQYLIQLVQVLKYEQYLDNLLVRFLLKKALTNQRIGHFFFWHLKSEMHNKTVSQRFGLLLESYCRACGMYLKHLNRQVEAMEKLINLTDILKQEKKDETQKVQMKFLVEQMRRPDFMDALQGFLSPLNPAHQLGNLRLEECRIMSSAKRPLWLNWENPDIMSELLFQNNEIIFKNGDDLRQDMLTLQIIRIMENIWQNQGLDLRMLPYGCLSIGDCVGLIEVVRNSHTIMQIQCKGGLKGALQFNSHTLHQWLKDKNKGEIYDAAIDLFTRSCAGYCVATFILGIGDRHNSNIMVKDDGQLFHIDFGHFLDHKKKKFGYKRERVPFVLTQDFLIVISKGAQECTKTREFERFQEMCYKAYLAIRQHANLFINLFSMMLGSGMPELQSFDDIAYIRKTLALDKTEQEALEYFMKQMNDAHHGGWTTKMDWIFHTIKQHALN

For `CNC(=O)Nc1ccc(-c2nc(N3CC4CCC(C3)O4)c3cnn(C4CCC5(CC4)OCCO5)c3n2)cc1`, the results for the % of control in test [1] and in test [2] were 8.8% and 92%, respectively.
Turning to `Cc1cc([C@@H](C)Nc2ccccc2C(=O)O)c2nc(N3CCOCC3)cc(=O)n2c1` [AZD-6482], the % of control in test [3] turned out to be 90%.
As for `COc1cc(N(C)c2ccnc3ccc(C(F)(F)F)cc23)cc(OC)c1OC`, the % binding in [4] came out at 95%.
In the case of `N#Cc1cccc(-c2c[nH]c3ncnc(N4CCOCC4)c23)c1`, in test [5], the % of inhibition is -38%. This molecule also yielded a % of control in test [6] of 45%.
Take `CC[C@@H]1[C@H](F)C(=O)N[C@@H]1COc1nccc2cc(C(N)=O)c(OC)cc12` [ZIMLOVISERTIB]: the % of inhibition in test [7] (at 0.01 µM) is -2.4%; in test [7] (at 0.04 µM) it was 1.2%; in [7] (at 0.2 µM), -29.5%; in [7] (at 1 µM), -29%; in test [7] (at 5 µM), 14.7%.
Regarding `COc1cc(Nc2nc(C)cc(-c3cnn4nc(OC)ccc34)n2)cc(C(F)(F)F)c1`, the % of control in test [8] worked out at 95%; in [9], 94%.
On to `O[C@H]1CC[C@H](Nc2ncc3nc(Nc4c(F)cc(F)cc4F)n([C@H]4CCOC4)c3n2)CC1`, for which the % of control on Misshapen-like kinase 1 was 71%.
